From patent publication US6495529B1 (Warner-Lambert Company, priority 1998, dated 2002)
pKi: −log10 of the molar value.

What was measured:
α1-receptors = format: binding, dog; conditions: read-out: Alpha-1 Ki
Experimental: The lungs of mongrel dogs were separated from cartilaginous airways and major blood vessels, weighted, chopped and placed into 10 volumes of ice-cold buffered sucrose (50 mM Tris-HCl pH 7.4, 1 mM EGTA, 0.32 M Sucrose). The tissue was then homogenized in a Polytron tissue homogenizer. The homogenate was filtered through two layers of cheesecloth, and the filtrate was dounced three times using a Con-Turque Potter homogenizer. […] The supernatant was recentrifuged at 30,000×g for 30 min at 4° C. and the resulting pellet was washed and resuspended in 10 volumes of Tris buffer (50 mM Tris HCL, pH 7.4, 1 mM EGTA) and incubated at 37° C. for 30 min in a shaking water bath. The suspension was centrifuged at 4° C., at 30,000×g for 30 min and the resulting pellet washed in 10 volumes of Tris buffer. […] Protein concentration was then determined by the Lowry method and the final suspension was adjusted to 10 mg of protein/ml, aliquoted and stored at −90° C.
Nonspecific binding was determined for each concentration point in separate incubations, with 10 μM phentolamine. Each experimental point was determined in triplicate. […] All binding assay incubations were terminated by rapid dilution with 2 ml of ice-cold wash buffer (50 mM Tris-HCl, pH 7.4) and filtration through Whatman GF/B filters using Brandel receptor-binding harvester.
All data were analyzed with the aid of microcomputer nonlinear curve fitting programs (PRISM 2.0, Graphpad Software, San Diego Calif.).
The receptors resident in each of the three membrane preparations were evaluated by standard saturation analysis following the addition of increasing concentrations of the appropriate radioligand. […]

Swiss-Webster mice = assay: Locomotor stimulant and depressant effects in mice; conditions: mice, i.p.
Experimental: Male Swiss-Webster mice (HSD ND4, Harlan Sprague Dawley, Houston, Tex.) aged 2-3 months were used in these studies. Each dose group consisted of 8 mice. The mice were housed 2 to 4 per cage in 30.4×22.9×15.2 cm clear polycarbonate cages with food and water available ad libitum for at least one week prior to locomotor activity testing. The colony was maintained at 23±1° C., on a normal light-dark cycle beginning at 0700 hr. All testing took place during the light portion of the light-dark cycle.
Horizontal (forward movement) locomotor activity was measured using a standardized, optical activity monitoring system [Model KXYZCM (16), Omnitech Electronics, Columbus, Ohio]. Activity was monitored in forty 40.5×40.5×30.5 cm clear acrylic chambers that where housed in sets of two within larger sound-attenuating chambers. A panel of 16 infrared beams and corresponding photodetectors were spaced 2 cm apart along the sides and 2.4 cm above the floor of each activity chamber. A 7.5-W incandescent light above each chamber provided dim illumination via a rheostat set to 20% of full scale. Fans provided an 80-dB ambient noise level within the chamber.
(+)-Amphetamine was used as a positive control. The total horizontal distance traversed (cm) was recorded at 10 minute intervals for a 2-hour session. Separate groups of 8 mice were assigned to each dose or saline group, and dose-effect testing continued for each compound until maximal stimulant or depressant effects could be estimated. A separate control group was tested along with each compound.
Using TableCurve 2D v2.03 (Jandel Scientific), the mean average total distance traversed (cm/10 min) for that period was fit to a 3-parameter logistic peak function of log10 dose (with the constant set to the mean of the saline group), and the maximum effect estimated from the resulting curve. The ED50 (dose producing ½ maximal stimulant activity) was estimated from a linear regression against log10 dose of the ascending portion of the dose-effect curve. The stimulant efficacy was the peak effect of the compound (cm/10 min) as estimated from the logistic peak function, minus the mean control distance traveled (cm/10 min), and was expressed for each stimulant compound as a ratio to the stimulant efficacy determined for (+)-amphetamine.
The mean average total distance traversed (cm/10 min) for that period were fit to a linear function of log10 dose of the descending portion of the dose-effect curve. […] Efficacy was the ratio of maximal depressant effect to maximum possible depression for each compound (mean average total distance of the control group minus the lowest mean total distance, expressed as a ratio to the control group total distance).
Time course data for each compound were considered in 2-way analyses of variance with dose as a between-group and time as a within-group factor. The dose-effect data were considered in 1-way analyses of variance, and planned individual comparisons were conduced between each dose and the saline control group. Interaction studies were considered in 2-way analyses of variance, with Pretreatment and Test dose as the factors.

rats = assay: Dosage that raised mean arterial pressure 10% in rat; format: in vivo
Sprague Dawley rats = assay: Nasal airway pressure in normal (non-histamine-challenged) rats; conditions: for Mean Decrease in Nasal Airway Pressure: i.v.
[1] = tested on: New Zealand white rabbits; assay: Intraocular pressure (IOP) after topical application to rabbit eye; conditions: topical 1% and 2%, rabbit, treated eye
[2] = tested on: New Zealand white rabbits; assay: Pupil diameter / mydriasis after topical application to rabbit eye
mongrel dogs = assay: Intravenous dose increasing mean arterial pressure 10% in anesthetized dogs; conditions: anesthetized dog, i.v.

**Q.** How did the pKi (α1-receptors) turn out when `CN[C@@H](C)[C@H](O)c1ccccc1` [(−)-ephedrine] was run?
**A.** The pKi was 4.33.

**Q.** And the “locomotor depressant effect (in words)” value (Swiss-Webster mice; 2-hour session)?
**A.** The value was “did not cause locomotor depression”.

**Q.** What about the “locomotor stimulant effect (in words)” value (Swiss-Webster mice; 2-hour session) of the same compound?
**A.** Its value is “increased locomotion”.

**Q.** And the “onset of increased locomotion after injection” value (Swiss-Webster mice; (−)-ephedrine: following 50 to 100 mg/kg)?
**A.** Its value is no more than 40 min.

**Q.** And the “Dosage of Enantiomer that Raised Mean Arterial Pressure 10%, Rat” value (rats)?
**A.** The value was 30 µg.

**Q.** What about the “Mean Decrease in Nasal Airway Pressure” value (Sprague Dawley rats; 5% of the dose that increased MAP 10%, mean ± SEM) of the same compound?
**A.** Its value is −1.0 ± 0.8 mm water.

**Q.** What about the “Mean Decrease in Nasal Airway Pressure” value (Sprague Dawley rats; 10% of the dose that increased MAP 10%) of the same compound?
**A.** The value was −2.5 ± 1.5 mm water.

**Q.** What about the “Mean Decrease in Nasal Airway Pressure” value (Sprague Dawley rats; 50% of the dose that increased MAP 10%) of the same compound?
**A.** The value was −1.9 ± 2.0 mm water.

**Q.** And the “Mean decrease in nasal airway pressure, % Change” value (Sprague Dawley rats; 100% dose i.v., non-histamine-challenged rats)?
**A.** The value was −14%.

**Q.** And the “Nasal airway pressure, Post Drug” value (Sprague Dawley rats; after 100% dose (dose raising MAP 10%) into jugular vein)?
**A.** Its value is 6 ± 0.5 mm H2O.

**Q.** And the “Nasal airway pressure, Control” value (Sprague Dawley rats; before drug, non-histamine-challenged rats)?
**A.** Its value is 7 ± 0.8 mm H2 O.

**Q.** And the “effect on IOP (in words)” value [1]?
**A.** Its value is “increased IOP”.

**Q.** What about the “Mydriatic Responses, TREATED EYE” value ([2]; 1% solution) of the same compound?
**A.** The value was 0.

**Q.** What about the “Mydriatic Responses, UNTREATED EYE” value ([2]; 1% solution) of the same compound?
**A.** The value was 0.

**Q.** What about the “Mydriatic Responses, TREATED EYE” value ([2]; 2% solution) of the same compound?
**A.** Its value is “+++ (+++ >4 mm change)”.

**Q.** And the “Mydriatic Responses, UNTREATED EYE” value ([2]; 2% solution)?
**A.** The value was “+++ (+++ >4 mm change)”.

**Q.** And the “Pupil Diameter” value ([2]; drug 1% topical, drug treated eye (T), 0.5 hr)?
**A.** The value was 6 ± 0.4 mm.

**Q.** What about the “Pupil Diameter” value ([2]; drug 1% topical, drug treated eye (T), 1 hr) of the same compound?
**A.** Its value is 6 ± 0.4 mm.

**Q.** What about the “Pupil Diameter” value ([2]; drug 1% topical, drug treated eye (T), 3 hr) of the same compound?
**A.** Its value is 6 ± 0.4 mm.

**Q.** And the “Pupil Diameter” value ([2]; drug 1% topical, drug treated eye (T), 5 hr)?
**A.** Its value is 6 ± 0.4 mm.

**Q.** What about the “Pupil Diameter” value ([2]; drug 1% topical, drug treated eye (T), −0.5 hr (pre-treatment)) of the same compound?
**A.** The value was 6 ± 0.4 mm.

**Q.** What about the “Pupil Diameter” value ([2]; drug 1% topical, drug treated eye (T), −1 hr (pre-treatment)) of the same compound?
**A.** Its value is 6 ± 0.4 mm.

**Q.** And the “Pupil Diameter” value ([2]; drug 1% topical, untreated contralateral eye (U), 0.5 hr)?
**A.** The value was 6 ± 0.4 mm.

**Q.** And the “Pupil Diameter” value ([2]; drug 1% topical, untreated contralateral eye (U), 1 hr)?
**A.** The value was 6 ± 0.4 mm.

**Q.** And the “Pupil Diameter” value ([2]; drug 1% topical, untreated contralateral eye (U), 3 hr)?
**A.** The value was 6 ± 0.4 mm.

**Q.** And the “Pupil Diameter” value ([2]; drug 1% topical, untreated contralateral eye (U), 5 hr)?
**A.** The value was 6 ± 0.4 mm.

**Q.** And the “Pupil Diameter” value ([2]; drug 1% topical, untreated contralateral eye (U), −0.5 hr (pre-treatment))?
**A.** The value was 6 ± 0.4 mm.

**Q.** What about the “Pupil Diameter” value ([2]; drug 1% topical, untreated contralateral eye (U), −1 hr (pre-treatment), mean ± S.E.) of the same compound?
**A.** The value was 6 ± 0.4 mm.

**Q.** What about the “Pupil Diameter” value ([2]; drug 2% topical, drug treated eye (T), 0.5 hr) of the same compound?
**A.** Its value is 9 ± 0.2 mm.

**Q.** What about the “Pupil Diameter” value ([2]; drug 2% topical, drug treated eye (T), 1 hr) of the same compound?
**A.** The value was 9 ± 0.2 mm.

**Q.** And the “Pupil Diameter” value ([2]; drug 2% topical, drug treated eye (T), 3 hr)?
**A.** The value was 9 ± 0.2 mm.

**Q.** And the “Pupil Diameter” value ([2]; drug 2% topical, drug treated eye (T), 5 hr)?
**A.** The value was 9 ± 0.2 mm.

**Q.** And the “Pupil Diameter” value ([2]; drug 2% topical, drug treated eye (T), −0.5 hr (pre-treatment))?
**A.** Its value is 5 ± 0.2 mm.

**Q.** And the “Pupil Diameter” value ([2]; drug 2% topical, drug treated eye (T), −1 hr (pre-treatment))?
**A.** Its value is 5 ± 0.2 mm.

**Q.** And the “Pupil Diameter” value ([2]; drug 2% topical, untreated contralateral eye (U), 0.5 hr)?
**A.** The value was 9 ± 0.2 mm.

**Q.** What about the “Pupil Diameter” value ([2]; drug 2% topical, untreated contralateral eye (U), 1 hr) of the same compound?
**A.** The value was 9 ± 0.2 mm.

**Q.** And the “Pupil Diameter” value ([2]; drug 2% topical, untreated contralateral eye (U), 3 hr)?
**A.** Its value is 9 ± 0.2 mm.

**Q.** What about the “Pupil Diameter” value ([2]; drug 2% topical, untreated contralateral eye (U), 5 hr) of the same compound?
**A.** The value was 9 ± 0.2 mm.

**Q.** And the “Pupil Diameter” value ([2]; drug 2% topical, untreated contralateral eye (U), −0.5 hr (pre-treatment))?
**A.** The value was 5 ± 0.2 mm.

**Q.** And the “Pupil Diameter” value ([2]; drug 2% topical, untreated contralateral eye (U), −1 hr (pre-treatment))?
**A.** The value was 5 ± 0.2 mm.

**Q.** And the “mydriasis / effect on pupil diameter (in words)” value ([2]; topical, rabbit)?
**A.** Its value is “had no effect on pupil diameter”.

**Q.** What about the “Intravenous Dose Needed to Increase MAP 10%” value (mongrel dogs) of the same compound?
**A.** Its value is 0.1 mg/kg.
